Our source for the IC50 and MIC values is patent US9309179B2 (FAB PHARMA S.A.S., priority 2006, dated 2016).

Structures are written as SMILES. In brackets after ≈: the same amount, converted by molar mass. Where two headings read alike, the source gives them in different places.

Assay [1] has as its target T1, recombinant E. coli FabI enzyme (Escherichia coli, UniProt P0AEK4).
T1 construct: 6-His (C); made in house; host or cells: prokaryotic expression vector
Briefly: FabI inhibition, fluorescence-based NADH assay. The format is biochemical. As to the method: Compound inhibitory activity of FabI enzyme is measured in vitro by the IC50 determination using a fluorescent based assay.
The protein FabI from E. coli is prepared and purified using standard methods for recombinant protein expression after cloning of the gene in a prokaryotic expression vector.
The biochemical activity of the FabI enzyme is assessed using the following method.
The assay buffer “AB” contains 50 mM Hepes pH7.5, 100 μM Dithiothreitol, 0.006% Triton-X100. The following components are added in a black polystyrene Costar plate up to a final volume of 55 μL: 1.5 μL DMSO, or inhibitor dissolved in DMSO and 53.5 μL of a FabI/NADH/NAD+ mixture in AB. After 60 min of pre-incubation at room temperature, the reaction is started by addition of 5 μL of Crotonoyl-CoA to a final volume of 60 μL. This reaction mixture is then composed of 40 nM FabI (produced in house from E. coli, C-terminal 6-His tagged), 20 μM NADH (Biochemika), 10 μM NAD+ (Biochemika), 50 μM Crotonoyl-CoA (Biochemika) and compound at defined concentration. Fluorescence intensity of NADH (lex=360 nm, lem=520 nm) is measured immediately after Crotonoyl-CoA addition, and 2 hours later by a Fluostar Optima (BMG). Enzyme activity is proportional to the signal decrease from which inhibition percentages are derived. For IC50 determinations, the inhibitor is tested at 6 to 10 different concentrations, and the related inhibitions are fitted to a classical langmuir equilibrium model using XLFIT (IDBS).
In Vitro Inhibition of Recombinant E. coli FabI Enzyme by Selected Compounds of Formula (I).

In assay [2] the test system is E. coli CIP 76.24. Briefly: MIC, broth microdilution. Conditions: Escherichia coli, CIP76; broth microdilution, 37° C., 20 h; read-out: MIC E. coli CIP 76.24. It is filed as cell-based. As to the method: (§1) The compounds of the present invention are useful antibacterial agents having a selective spectrum of activity in vitro against standard bacterial strains which are used to screen for activity against pathogenic bacteria. […] The activity is presented as Minimum Inhibitory Concentration (MIC) expressed in μg/ml.
(§2) Whole-cell antimicrobial activity was determined by broth microdilution method in microtiterplates. The compound was tested in serial 4-fold dilutions ranging from 0.06 to 64 mcg/mL. Test organisms were selected from the following laboratory strains: Staphylococcus aureus CIP 76.25, Staphylococcus aureus BAA39 MDR, Staphylococcus aureus NEM 14157 PeniR, Staphylococcus aureus CIP 54.146, Escherichia coli CIP 76.24. Bacteria were tested in Tryptic Soy (TS) or Mueller Hinton (MH) broth using an inoculum of 10^4 to 10^6 UFC/mL incubated at 37° C. for 20 h.
(§3) The minimum inhibitory concentration (MIC) was determined as the lowest concentration of compound at which no visible bacteria growth is observed (90% inhibition of absorbance of at […].)
(In general: Broth dilution looks for growth in wells or tubes with falling amounts of substance.)

Assay [3] deals with S. aureus BAA39MDR. Briefly: MIC, broth microdilution. The format is cell-based. Conditions: Staphylococcus aureus, broth microdilution, 37° C., 20 h, read-out: MIC S. aureus BAA39MDR. As to the method:
as §1, §2, §3

In assay [4] the test system is S. aureus CIP 76.25. Briefly: MIC, broth microdilution. It is filed as cell-based. The settings on record: Staphylococcus aureus, CIP76; broth microdilution, 37° C., 20 h; read-out: MIC S. aureus CIP 76.25. As to the method:
as §1, §2, §3

Assay [5] deals with S. aureus NEM14157. Briefly: MIC, broth microdilution. It is filed as cell-based. The settings on record: Staphylococcus aureus, NEM14157; broth microdilution, 37° C., 20 h; read-out: MIC S. aureus NEM14157. As to the method: as §1, §2, §3
The subject of assay [6] is S. aureus 1651 LRSA*. Briefly: MIC against resistant strains of S. aureus. The format is cell-based. The settings on record: Staphylococcus aureus, read-out: MIC S. aureus 1651 LRSA*. As to the method:
as §2, §3
(§4) In Vitro Activities Against Resistant Stains of S. aureus

For assay [7], the system named is S. aureus 1652 LRSA. Briefly: MIC against resistant strains of S. aureus. It is filed as cell-based. The settings on record: Staphylococcus aureus, read-out: MIC S. aureus 1652 LRSA. As to the method: as §2, §3, §4
For assay [8], the system named is S. aureus 2012 VISA. Briefly: MIC against resistant strains of S. aureus. The settings on record: Staphylococcus aureus, read-out: MIC S. aureus 2012 VISA. It is filed as cell-based. As to the method: as §2, §3, §4
In assay [9] the test system is S. aureus 2018 VISA*. Briefly: MIC against resistant strains of S. aureus. The format is cell-based. The settings on record: Staphylococcus aureus, read-out: MIC S. aureus 2018 VISA*. As to the method:
as §2, §3, §4

The test system of assay [10] is S. aureus MRSA*. Briefly: MIC against resistant strains of S. aureus. It is filed as cell-based. The settings on record: Staphylococcus aureus, read-out: MIC S. aureus MRSA*. As to the method:
as §2, §3, §4

Assay [11] deals with S. aureus USA300 MRSA*. Briefly: MIC against resistant strains of S. aureus. It is filed as cell-based. Conditions: Staphylococcus aureus, read-out: MIC S. aureus USA300 MRSA*.
The mark [12] stands for this setting: Methicillin Resistant S. aureus.

T1 sequence (P0AEK4 whole entry): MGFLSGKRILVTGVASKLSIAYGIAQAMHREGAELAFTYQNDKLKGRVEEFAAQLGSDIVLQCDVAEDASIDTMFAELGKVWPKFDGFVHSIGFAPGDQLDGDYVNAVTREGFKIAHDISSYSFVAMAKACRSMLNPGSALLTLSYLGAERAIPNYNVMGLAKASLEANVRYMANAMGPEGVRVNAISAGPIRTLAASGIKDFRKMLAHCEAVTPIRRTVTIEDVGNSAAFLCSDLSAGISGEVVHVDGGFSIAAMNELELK

As usually defined, the IC50 is the point on the concentration scale where inhibition reaches its midpoint. Broadly, the MIC is the smallest concentration in the dilution series that meets the test's criterion for growth inhibition. On to `CCCc1ccc(Oc2cc(F)nc(F)c2)c(O)c1` [Example 25B, 2-[(2,6-difluoropyridin-4-yl)oxy]-5-propylphenol], for which, in assay [1], the IC50 came to 0.57 µM. The MIC was found to be 4 µg/mL (≈ 15.1 µM) in [2], 0.062 µg/mL (≈ 0.234 µM) in [3], 0.062 µg/mL (≈ 0.234 µM) in [4] and 0.062 µg/mL (≈ 0.234 µM) in [5].
As to `CCc1ccc(Oc2ccc(C(C)=O)cc2F)c(O)c1` [Example 29, 1-[4-(4-ethyl-2-hydroxyphenoxy)-3-fluorophenyl]ethanone], the IC50 in assay [1] was determined as 0.15 µM. The MIC in assay [2] amounted to 1 µg/mL (≈ 3.65 µM); in [3], 0.062 µg/mL (≈ 0.226 µM); in assay [4] it was 0.062 µg/mL (≈ 0.226 µM); in assay [5] it was 0.062 µg/mL (≈ 0.226 µM).
On to `CCCNS(=O)(=O)c1ccc(Oc2ccc(CC)cc2O)c(F)c1` [Example 71, 4-(4-ethyl-2-hydroxyphenoxy)-3-fluoro-N-propyl benzenesulfonamide], for which the IC50 in assay [1] amounted to 0.33 µM. Also, the MIC in assay [2] was 4 µg/mL (≈ 11.3 µM); in assay [3], 0.25 µg/mL (≈ 0.707 µM); in [4] it was below 0.062 µg/mL; in assay [5], 0.062 µg/mL (≈ 0.175 µM).
On the same counts, the results for `CCc1cc(O)c(Oc2cccnc2F)cc1F` [Example 87, 5-Ethyl-4-fluoro-2-(2-fluoropyridin-3yloxy)phenol] are 0.031 µM, 0.25 µg/mL (≈ 0.995 µM), 0.062 µg/mL (≈ 0.247 µM), 0.062 µg/mL (≈ 0.247 µM) and 0.016 µg/mL (≈ 0.0637 µM).
On the same counts, the results for `CCCc1ccc(Oc2ccc(OC)cc2)c(O)c1` [Example 16, 2-(4-methoxyphenoxy)-5-propylphenol] are 0.51 µM, 4 µg/mL (≈ 15.5 µM), 0.25 µg/mL (≈ 0.968 µM), 0.25 µg/mL (≈ 0.968 µM) and 0.25 µg/mL (≈ 0.968 µM).
Regarding `CCc1ccc(Oc2ccc(NCCCCO)cc2F)c(O)c1` [Example 37, 5-ethyl-2-{2-fluoro-4-[(4-hydroxybutyl)amino]phenoxy}phenol], the IC50 in [1] came out at 0.41 µM. Also, the MIC in assay [2] worked out at 4 µg/mL (≈ 12.5 µM); in assay [3], 0.25 µg/mL (≈ 0.783 µM); in [4], 0.062 µg/mL (≈ 0.194 µM); in [5] it was 0.25 µg/mL (≈ 0.783 µM).
In the case of `CN[C@H](CC(C)C)C(=O)N[C@H]1C(=O)N[C@@H](CC(N)=O)C(=O)N[C@H]2C(=O)N[C@H]3C(=O)N[C@H](C(=O)N[C@H](C(=O)O)c4cc(O)cc(O)c4-c4cc3ccc4O)[C@H](O)c3ccc(c(Cl)c3)Oc3cc2cc(c3O[C@@H]2O[C@H](CO)[C@@H](O)[C@H](O)[C@H]2O[C@H]2C[C@](C)(N)[C@H](O)[C@H](C)O2)Oc2ccc(cc2Cl)[C@H]1O` [Vancomycin, reference compound], the MIC in assay [6] was determined as 1 µg/mL (≈ 0.69 µM); in assay [7] it was 1 µg/mL (≈ 0.69 µM); in assay [8] (VISA), 8 µg/mL (≈ 5.52 µM); in assay [9] (VISA) it was 4 µg/mL (≈ 2.76 µM); in [10], 1 µg/mL (≈ 0.69 µM); in assay [11], 0.5 µg/mL (≈ 0.345 µM).
Take `CCc1ccc(Oc2cccnc2N)c(O)c1` [Example 21, 2-[(2-aminopyridin-3-yl)oxy]-5-ethylphenol]: the IC50 in [1] was found to be 0.069 µM. Besides, the MIC in assay [2] turned out to be 0.25 µg/mL (≈ 1.09 µM); in assay [3] it was 0.25 µg/mL (≈ 1.09 µM); in [4] it was 0.25 µg/mL (≈ 1.09 µM); in assay [5], 0.25 µg/mL (≈ 1.09 µM); in assay [6] (Linezolid resistant S. aureus), 0.12 µg/mL (≈ 0.521 µM); in [7] (Linezolid resistant S. aureus) it was 0.5 µg/mL (≈ 2.17 µM). The MIC in assay [8] (VISA strain) came out at 0.12 µg/mL (≈ 0.521 µM); in [9] (VISA strain), 0.25 µg/mL (≈ 1.09 µM); in [10] (setting [12]), 0.12 µg/mL (≈ 0.521 µM); in assay [11] (setting [12]) it was 0.5 µg/mL (≈ 2.17 µM).
Turning to `CCc1ccc(Oc2ccc(NCCCO)cc2F)c(O)c1` [Example 48, 5-Ethyl-2-[2-fluoro-4-(3-hydroxy-propylamino)-phenoxy]-phenol], the MIC in assay [2] was determined as 4 µg/mL (≈ 13.1 µM); in assay [4], 0.062 µg/mL (≈ 0.203 µM); in assay [6] (Linezolid resistant S. aureus), 0.12 µg/mL (≈ 0.393 µM); in assay [7] (Linezolid resistant S. aureus), 0.5 µg/mL (≈ 1.64 µM); in assay [8] (VISA strain) it was 0.12 µg/mL (≈ 0.393 µM); in [9] (VISA strain), 0.25 µg/mL (≈ 0.819 µM). The MIC in assay [10] (setting [12]) stood at 0.06 µg/mL (≈ 0.196 µM); in assay [11] (setting [12]), 0.5 µg/mL (≈ 1.64 µM).
On to `Oc1cc(CC(F)(F)F)ccc1Oc1cccc(F)n1` [Example 27, 2-[(6-fluoropyridin-2-yl)oxy]-5-(2,2,2-trifluoroethyl)phenol], for which the IC50 in [1] (recombinant E. coli FabI 40 nM, 60 min pre-incubation, NADH fluorescence, read-out: IC50) amounted to 0.47 µM. Further, the MIC in assay [2] was 4 µg/mL (≈ 13.9 µM); in assay [3], 0.25 µg/mL (≈ 0.87 µM); in [4], 0.25 µg/mL (≈ 0.87 µM); in assay [5] it was 0.25 µg/mL (≈ 0.87 µM).
`CCc1cc(O)c(Oc2cccnc2N)cc1F` [Example 84, 2-(2-aminopyridin-3yloxy)-5-ethyl-4-fluorophenol]: the IC50 in assay [1] worked out at 0.1 µM. Also, the MIC in assay [2], in assay [3], in assay [4] and in [5] was 0.25 µg/mL (≈ 1.01 µM) each time.
